{
  "source": "patent US20040009485A1",
  "about": "“Cellular arrays for the identification of altered gene expression” (priority 2002, published 2004)",
  "key": {"luxCDABE gene fusions": {"test_system": "luxCDABE gene fusions", "test": "Retest of nalidixic acid upregulated gene fusions in liquid medium", "format": "cell-based, E. coli", "details": "for Liquid expt. NA/LB t = 2 hr: at conc of max induction; for # of conc with >1.5 fold up: seven conc 80-1.2 μg/ml", "method": "Several concentrations of nalidixic acid were used because the differences in responses between liquid and solid growth were not known. Light production of 100 μl duplicate cultures at 37° C. was quantitated using a 96 well plate luminometer (Luminoskan Ascent, Labsystems). […] It should be noted that the liquid medium tests were not corrected for growth inhibition by nalidixic acid."}, "[1]": {"test_system": "heat shock regulon gene fusions", "test": "Stress response of heat shock regulon luxCDABE gene fusions (ethanol)", "format": "cell-based, E. coli", "details": "clpB-luxCDABE fusion (heat shock regulon), DPD2243; 5 μg/ml nalidixic acid, 110 minutes", "method": "To test the stress responses, one or two single colonies of each selected strain were used to inoculate 5.0 ml of LB medium containing 150 μg/ml of ampicillin. These cultures were grown overnight at 37° C. then diluted by adding 50 μl or 100 μl of the overnight culture into 10.0 ml of fresh LB medium (without ampicillin) and grown with agitation at 37° C. until the culture was in exponential phase with readings on a Klett-Summerson colorimeter containing the red filter of between 10 and 40. These actively growing cultures were immediately used to initiate a stress response experiment by adding 50 μl of cultures to 50 μl of LB medium containing various concentrations of chemical in the wells a 96 well luminometer plate. This division of the actively growing culture at the time of chemical addition ensured identical populations were present when the stress was imposed. Light production was measured in a Dynex ML3000 luminometer at 37° C. The dimensionless units of light production, relative light units (RLU), are obtained by comparison with the light reading from an internal light-emitting diode. The cycle mode of the ML3000 luminometer, similar to previous descriptions (Van Dyk et al., Appl. Environ. Microbiol. 60:1414-120) was used. […]"}, "[2]": {"test_system": "luxCDABE gene fusions of the Lux-A Collection", "test": "Induction of Lux-A Collection gene fusions by MMC (and yebF fusion by nalidixic acid)", "format": "cell-based, E. coli", "details": "light-producing transformants with inverted insert (20% of them)", "method": "The Lux-A Collection of reporter gene fusions was examined for presence of fusions to the genes in Table 11. […] Each of these was tested for induction by MMC at several doses over a time course of 100 minutes.\nAs expected, the expression of the known SOS genes was elevated; however the expression of several was elevated less than 2-fold (Table 12) and as such were within a large group of 792 genes the expression of which was elevated by 20% or more. Most of these are likely due to artifacts in the array data rather than to actual biologically relevant responses. To test if strains carrying luxCDABE gene fusions would yield the expected positive result, the three gene fusions that were available in the Lux-A Collection of reporter gene fusions were tested for mitomycin C responses.\nIn this case, a divergent promoter to the purT gene was present in the chromosomal fragment and strains containing the backward yebF fusion produced light. […] […] The orientation of the inserted segment to yield a fusion of yebF to the luxCDABE operon was confirmed by DNA sequence analysis."}, "[3]": {"test_system": "Luxarray 0.5 reporter clones", "test": "High density Luxarray 0.5 nalidixic acid perturbation (cooled CCD camera)", "format": "cell-based, E. coli", "details": "5 μg/ml, 0-8 hr", "method": "The clones of Luxarray 0.5 were used to print arrays as described above at a 4×4 density. That is to say that each single spot as in FIG. 3 was replicated 16× in a 4×4 subarray. […] Arrays were printed in triplicate from fresh overnight cultures onto membranes on plates containing LB media. […] Cultures were replaced at 37° C. to continue growing. Images were collected for each array every two hours from 0-8 hr after relocation using a cooled CCD camera (FluorChem 8000: f0.85 lens, 2 min exposure. AlphaInnotech). Spot intensity was determined using ArrayVision™ (Imaging Research, Toronto, Canada).\nIn contrast, light production from the strain carrying the lac promoter fusion as well as several strains carrying other promoter fusions was decreased."}, "[4]": {"test_system": "uhpT-luxCDABE gene fusion (E. coli strain DPD3228)", "test": "Verification of uhpT-lux upregulation by limonene", "format": "cell-based", "details": "late response, maximal at highest conc, also detected at 40% or 20% of saturating amounts (FIG. 10)", "method": "E. coli strain DPD3228 is identical to lux-a.pk034.b9 the strain containing the uhpT-luxCDABE gene fusion. This strain was grown overnight at 37° C. in LB medium containing 100 μg/ml ampicillin and diluted the following day into LB medium and grown to log phase at 37° C. 20 μl aliquots of this culture were added to 80 μl of LB medium saturated with limonene, to 80 μl of a series of two fold dilutions into LB medium of LB saturated with limonene, and to 80 μl of LB medium. Light production was measured in a Luminoskan Ascent (Labsystems) microplate luminometer at 37° C. […] Similar to the initial LuxArray observations, a late response to the presence of limonene was observed. This response was maximal at the highest concentration of limonene tested, but was also detected when limonene was present at 40% or 20% of saturating amounts in LB medium."}, "[5]": {"details": "1pxA 1pxB rnhB dnaE fusion (lux-a.pk061.c3)"}, "[6]": {"details": "dinG ybiB fusion (lux-a.pk0024.f5)"}, "[7]": {"details": "frvR frvX frvB frvA fusion (lux-a.pk046.e6)"}, "[8]": {"details": "yfhJ fdx hscA yfhE fusion (lux-a.pk0019.g2)"}},
  "data": [
    {"smiles": "CCn1cc(C(=O)O)c(=O)c2ccc(C)nc21", "note": "[Nalidixic acid, nalidixic acid]", "values": [
      {"measurement": "Nal conc of max induction in liquid", "setting": "luxCDABE gene fusions; [5]", "value": 2.5, "unit": "µg/mL"},
      {"measurement": "Liquid expt. NA/LB t = 2 hr", "setting": "luxCDABE gene fusions; [5]", "value": 1.82},
      {"measurement": "# of conc with >1.5 fold up", "setting": "luxCDABE gene fusions; [5]", "value": 3},
      {"measurement": "Nal conc of max induction in liquid", "setting": "luxCDABE gene fusions; b1728 fusion (lux-a.pk033.c5)", "value": 5, "unit": "µg/mL"},
      {"measurement": "Liquid expt. NA/LB t = 2 hr", "setting": "luxCDABE gene fusions; b1728 fusion (lux-a.pk033.c5)", "value": 3.67},
      {"measurement": "# of conc with >1.5 fold up", "setting": "luxCDABE gene fusions; b1728 fusion (lux-a.pk033.c5)", "value": 7},
      {"measurement": "Nal conc of max induction in liquid", "setting": "luxCDABE gene fusions; b1936 fusion (lux-a.pk0019.g1)", "value": 10, "unit": "µg/mL"},
      {"measurement": "Liquid expt. NA/LB t = 2 hr", "setting": "luxCDABE gene fusions; b1936 fusion (lux-a.pk0019.g1)", "value": 2.34},
      {"measurement": "# of conc with >1.5 fold up", "setting": "luxCDABE gene fusions; b1936 fusion (lux-a.pk0019.g1)", "value": 6},
      {"measurement": "Nal conc of max induction in liquid", "setting": "luxCDABE gene fusions; [6]", "value": 5, "unit": "µg/mL"},
      {"measurement": "Liquid expt. NA/LB t = 2 hr", "setting": "luxCDABE gene fusions; [6]", "value": 4.18},
      {"measurement": "# of conc with >1.5 fold up", "setting": "luxCDABE gene fusions; [6]", "value": 6},
      {"measurement": "Nal conc of max induction in liquid", "setting": "luxCDABE gene fusions; dinP fusion (lux-a.pk055.a3)", "value": 5, "unit": "µg/mL"},
      {"measurement": "Liquid expt. NA/LB t = 2 hr", "setting": "luxCDABE gene fusions; dinP fusion (lux-a.pk055.a3)", "value": 7.60},
      {"measurement": "# of conc with >1.5 fold up", "setting": "luxCDABE gene fusions; dinP fusion (lux-a.pk055.a3)", "value": 7},
      {"measurement": "Nal conc of max induction in liquid", "setting": "luxCDABE gene fusions; [7]", "value": 20, "unit": "µg/mL"},
      {"measurement": "Liquid expt. NA/LB t = 2 hr", "setting": "luxCDABE gene fusions; [7]", "value": 1.46},
      {"measurement": "# of conc with >1.5 fold up", "setting": "luxCDABE gene fusions; [7]", "value": 0},
      {"measurement": "Nal conc of max induction in liquid", "setting": "luxCDABE gene fusions; fusion (lux-a.pk0015.d6)", "value": 20, "unit": "µg/mL"},
      {"measurement": "Liquid expt. NA/LB t = 2 hr", "setting": "luxCDABE gene fusions; fusion (lux-a.pk0015.d6)", "value": 2.71},
      {"measurement": "# of conc with >1.5 fold up", "setting": "luxCDABE gene fusions; fusion (lux-a.pk0015.d6)", "value": 6},
      {"measurement": "Nal conc of max induction in liquid", "setting": "luxCDABE gene fusions; oraA fusion (lux-a.pk058.f5)", "value": 10, "unit": "µg/mL"},
      {"measurement": "Liquid expt. NA/LB t = 2 hr", "setting": "luxCDABE gene fusions; oraA fusion (lux-a.pk058.f5)", "value": 7.19},
      {"measurement": "# of conc with >1.5 fold up", "setting": "luxCDABE gene fusions; oraA fusion (lux-a.pk058.f5)", "value": 7},
      {"measurement": "Nal conc of max induction in liquid", "setting": "luxCDABE gene fusions; yaaF fusion (lux-a.pk031.e7)", "value": 2.5, "unit": "µg/mL"},
      {"measurement": "Liquid expt. NA/LB t = 2 hr", "setting": "luxCDABE gene fusions; yaaF fusion (lux-a.pk031.e7)", "value": 1.85},
      {"measurement": "# of conc with >1.5 fold up", "setting": "luxCDABE gene fusions; yaaF fusion (lux-a.pk031.e7)", "value": 3},
      {"measurement": "Nal conc of max induction in liquid", "setting": "luxCDABE gene fusions; [8]", "value": 1.2, "unit": "µg/mL"},
      {"measurement": "Liquid expt. NA/LB t = 2 hr", "setting": "luxCDABE gene fusions; [8]", "value": 1.02},
      {"measurement": "# of conc with >1.5 fold up", "setting": "luxCDABE gene fusions; [8]", "value": 0},
      {"measurement": "Nal conc of max induction in liquid", "setting": "luxCDABE gene fusions; yigN fusion (lux-a.pk046.f11)", "value": 1.2, "unit": "µg/mL"},
      {"measurement": "Liquid expt. NA/LB t = 2 hr", "setting": "luxCDABE gene fusions; yigN fusion (lux-a.pk046.f11)", "value": 2.54},
      {"measurement": "# of conc with >1.5 fold up", "setting": "luxCDABE gene fusions; yigN fusion (lux-a.pk046.f11)", "value": 5},
      {"measurement": "Response Ratio", "setting": "[1]", "value": 0.40},
      {"measurement": "induction of bioluminescence of inverted yebF-luxCDABE fusion", "setting": "[2]", "value": "highly induced"},
      {"measurement": "reporter expression, high density array", "setting": "[3]; five documented DNA damage-responsive reporter constructs", "value": "upregulation of expression"},
      {"measurement": "light production, high density array", "setting": "[3]; lac promoter fusion and several other promoter fusions", "value": "decreased"}
    ]},
    {"smiles": "C=C(C)[C@H]1CC=C(C)CC1", "note": "[limonene]", "values": [
      {"measurement": "upregulation of bioluminescence of uhpT-luxCDABE strain", "setting": "[4]", "value": "upregulation of bioluminescence from this strain by limonene was confirmed"}
    ]}
  ]
}
